Reference: patent US20040072171A1, “Method for identifying compounds for modulating the activity of a tumor suppressor protein” (priority 2000, published 2004)

Legend:
[1] = system: MEK; conditions: merlin-inducible schwannoma cells, inhibitor for 2 or 12 hours
Procedure: Merlin-inducible schwannoma cells were plated onto 6-well plates at a density of 1.5×10^4 cells per well. 1 μg/ml doxycyclin was added where stated. After 16 hours, an MEK activation inhibitor (UO126; Promega) was added for 2 or 12 hours. 0 means no addition of inhibitor. The cells were harvested and solubilized in 2×Laemmli buffer, and the proteins were separated on a 10% SDS polyacrylamide gel. The proteins were transferred to a membrane, and an immune blot was carried out either with the polyclonal p27^Kip1 antibody C-19 from rabbit or with the Rb-specific antibody C-15 (Santa Cruz). The actin-specific antibody I-19 was used as loading control.

[2] = system: RT4-D6P2T cells; test: Growth in culture vessels of merlin-inducible schwannoma clone 54; type: cell-based, rat; conditions: for merlin-dependent growth inhibition in confluent cell cultures: merlin expression induced by doxycyclin
Procedure: Growth in culture vessels: To determine the growth curves, each well of a 24-well plate was seeded with 5×10^3 cells (in FIG. 7: 2.5×10^3), and determinations in triplicate were carried out every 24 hours (days). Definition of the growth conditions:
1. Low cell density (=logarithmic or exponential growth) means a cell density of 500 cells per cm^2 24 hours after seeding.
2. high cell density (=confluent growth condition) is defined as a cell density of 5×10^3 cells per cm^2 24 hours after seeding.
A. The soluble extracellular domain of CD44 sequestrates different ligands of exponentially growing and confluent cells. In each case 3 wells of a 24-well plate were seeded in triplicate with cells of clone 54, and the cells were treated with doxycyclin in order to induce the expression of merlin. On day 1 (logarithmically growing cells) and on day 3 (confluent cells), 10 ng/ml of soluble extracellular CD44 domain, either of the wild type (solCD44 or solCD44wt) or of the glycosaminoglycan-binding mutant (solCD44mut), were added. As the control, cells were treated in the same manner without doxycylin (since the addition of solCD44 was ineffective, only one group of data is shown).
B. Hyaluronate delays growth. In each case 3 wells of a 24-well plate were seeded in triplicate with cells of clone 54. Doxycyclin and hyaluronate (100 μg/ml) were added as stated.

[3] = system: merlin; test: Immune blot for dephosphorylation of merlin in clone 54 lysates; type: cell-based, rat; conditions: exponentially growing clone 54 cells, 8 hours doxycyclin
Procedure: For the immunoprecipitation of merlin, the cells were grown to confluence in 10 cm dishes, washed once with ice-cold PBS and then placed on ice and lysed with 1 ml lysis buffer per plate (50 mM Tris pH 7.4, 150 mM NaCl, 3 mM MgCl2, 0.5% NP-40, 1 mM PMSF, 10 μg/aprotinin ml, 10 μg/ml leupeptin). The DNA was sheared using a gauge 26 needle. The lysate was clarified by centrifugation, and the supernatant was incubated with 5 μg/ml merlin antibody at 4° C. overnight with gentle rotation. The reaction was subsequently treated with 30 μl of protein A agarose (dianova) and left to rotate for a further 3 hours at 4° C. The immune complexes were washed 4 times with cold lysis buffer and separated in 50 μl 2×Laemmli sample buffer. The protein was dissolved in a 10% SDS-PAGE, and immunoblots were generated with a merlin-specific antibody. For the treatment with calf intestine phosphatase (CIP), the lysate was incubated for 1 hour at 30° C. with 1 unit CIP prior to the immunoprecipitation. The coimmunoprecipitation of merlin and CD44 was carried out analogously, except that a different lysis buffer was used (20 mM Tris pH 7.4, 50 mM NaCl, 3 mM MgCl2, 0.5% NP40). The lysates were preincubated for 2 hours with protein A/G-agarose (Dianova) to remove unspecifically binding components, whereupon 5 μg/ml CD44 antibody 5G8 was added and the reaction was allowed to rotate overnight. […]

[4] = system: Erk; test: PDGF-dependent phosphorylation of Erk; type: cell-based, rat; conditions: clone 54, serum starvation, doxycyclin 8 hours, PDGF 5 ng/ml 5 minutes
Procedure: The cells were used to seed 6-well plates at Low density and 24-well plates at high density, with or without 0.8% methylcellulose. The cells remained free from serum for 24 hours and were treated with doxycyclin or left untreated for the last 8 hours. Then, the cells were stimulated for 5 minutes with 5 ng/ml PDGF and subsequently harvested in 2×Laemmli sample buffer, and the cell extracts were separated on a 10% SDS polyacrylamide gel. After the proteins had been transferred to the membrane, immunoblots were prepared with a phospho-Erk-specific antibody, and the bound antibody was detected. As a control for uniform loading of the separating gel with Erk, the membrane was stripped (freed from antibody) and anti-Erk-blotted.
C. […] Cells of clone 54 were plated at high or low cell density, left to grow for 24 hours with serum starvation and treated during the last 8 hours with doxycyclin (+) or left untreated (−). Where stated, the cells were treated for 2 hours with hyaluronidase (HAase, 5 U/μl), for 10 minutes with solCD44wt and/or for 5 minutes with PDGF (5ng/ml). The proteins of the lysates were separated by means of SDS-PAGE, and immune blots were carried out with phospho-Erk and Erk-specific antibodies. Clone 63 gave the same results as all the experiments in FIG. 6.
C. […] Cells were grown at low cell density and subsequently treated with doxycyclin with serum starvation cells as shown in FIG. 6C and assayed for the PDGF-dependent phosphorylation of Erk. Where stated, HA (100 μg/ml) was present for 10 minutes and PDGF (5 ng/ml) was present for 5 minutes. Experiments A to C were also carried out with clone 63, and similar results were obtained.

[5] = system: NIH3T3 cells; test: Growth rate of NIH3T3 cells; type: cell-based, murine; conditions: 100 μg/ml, cell counts on the following 3 days
Procedure: A. Growth rate of NIH3T3 cells after addition of hyaluronan. 24-well plates were seeded in triplicate with NIH3T3 cells at a density of 0.5×10^4 cells. Where stated, the culture medium was treated the next day with 100 μg/ml hyaluranon (Healon). The cell counts were determined on each of the following 3 days.

[6] = system: p27^Kip1; test: Induction of p27Kip1 in NIH3T3 cells (immune blot); type: cell-based, murine; conditions: for level of cell division cycle inhibitor p27^Kip1: 30 minutes, hyaluronan 100 μg/ml or solCD44s 10 ng/ml
Procedure: B. Induction of p27^Kip1 by treatment with hyaluronan. […] The next day, they were treated either with 100 μg/ml of hyaluronan or with 10 ng/ml solCD44s, and the plates were incubated for 30 minutes. The cells were harvested in 2×Laemmli sample buffer, and an immune blot with a polyclonal, p27^Kip1-specific antibody from rabbit was carried out (C-19, Santa Cruz). A polyclonal actin-antibody from goat (I-19, Santa Cruz) was used as loading control.

Molecule | hypophosphorylated Rb [1] | level of p27^Kip1 [1] | growth of clone 54 cells ([2]; hyaluronate 100 μg/ml, with doxycyclin) | phosphorylation state of merlin [3] | PDGF-dependent phosphorylation of Erk / activation of merlin [4] | growth rate of NIH3T3 cells [5] | level of cell division cycle inhibitor p27^Kip1 [6] | induction of p21 and p27 ([6]; hyaluronate-induced activation of merlin) | merlin-dependent growth inhibition in confluent cell cultures [2] | effect on growth of cells without doxycyclin ([2]; control cells without doxycyclin, 10 ng/ml) | growth of cultures in the logarithmic growth phase ([2]; logarithmically growing cells, merlin induced by doxycyclin, soluble CD44 10 ng/ml)
N#CC(=C(/N)Sc1ccccc1N)/C(C#N)=C(/N)Sc1ccccc1N [UO126] | increase | higher level |  |  |  |  |  |  |  |  | 
hyaluronate |  |  | delays growth | Induced dephosphorylation of merlin | blocks the PDGF-dependent phosphorylation of Erk | reduced their growth rate | increased | induction of p21 and p27 |  |  | 
hyaluronidase |  |  |  |  | destroys the ligand responsible for the activation of merlin |  |  |  | prevents the inhibition of growth |  | 
solCD44wt: soluble extracellular CD44 domain of the wild type |  |  |  | Induced dephosphorylation of merlin | nullifies blocking of the activation of merlin |  | increased |  | growth inhibition is nullified | ineffective | growth inhibition is observed
